Here are results for 1 compound from ChEMBL document CHEMBL1629586, “Preparation and stability of voriconazole eye drop solution” (Antimicrob Agents Chemother, 2009).

Molecules are shown by their SMILES.

This data set in a line: Chemical stability of the compound at pH 7 after 30 days. The class given is physicochemical. Conditions: buffer, pH 7, 720 h.

On to `C[C@@H](c1ncncc1F)[C@](O)(Cn1cncn1)c1ccc(F)cc1F` [VORICONAZOLE], for which the Stability entry is “Stable”.
